Source: PubChem BioAssay (NCI)
Where “and” joins values, the source holds several entries; their conditions need not be identical. Identical values can stand only once.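 Each compound was tested at five concentrations against cells in 96-well plates for 48 hours. Abbreviation: GI50, concentration required for 50% inhibition of growth. TGI: concentration producing complete growth inhibition.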

Legend:
Assay in all cases: growth of human tumour cells (NCI), 48 h
OVCAR-3 ovarian = test system: OVCAR-3 ovarian
SR leukemia = test system: SR leukemia
SNB-19 CNS = test system: SNB-19 CNS
SF-295 CNS = test system: SF-295 CNS
SF-539 CNS = test system: SF-539 CNS
OVCAR-5 ovarian = test system: OVCAR-5 ovarian
MDA-MB-435 = test system: MDA-MB-435
NCI-H522 lung = test system: NCI-H522 lung
T-47D breast = test system: T-47D breast
IGROV1 ovarian = test system: IGROV1 ovarian

Compound | GI50 (OVCAR-3 ovarian) | TGI (OVCAR-3 ovarian) | GI50 (SR leukemia) [µM] | TGI (SR leukemia) [µM] | GI50 (SNB-19 CNS) [µM] | TGI (SNB-19 CNS) [µM] | GI50 (SF-295 CNS) | TGI (SF-295 CNS) | GI50 (SF-539 CNS) [µM] | TGI (SF-539 CNS) [µM] | GI50 (OVCAR-5 ovarian) | TGI (OVCAR-5 ovarian) | GI50 (MDA-MB-435) [µM] | TGI (MDA-MB-435) [µM] | GI50 (NCI-H522 lung) [µM] | TGI (NCI-H522 lung) [µM] | GI50 (T-47D breast) | TGI (T-47D breast) | GI50 (IGROV1 ovarian) [µM] | TGI (IGROV1 ovarian) [µM]
CCCCCCCCCCCCCCCC[N+](C)(C)C | 0.182 µM and 1.16 µM | 0.519 µM and 2.81 µM | 0.166 | 0.551 | 0.129 | 0.255 | 0.305 µM and 0.716 µM | 1.36 µM and 2.38 µM | 1.49 | 3.18 | 0.196 µM and 1.23 µM | 0.61 µM and 4.06 µM | 0.241 | 0.761 | 0.139 | 0.329 | 0.272 µM and 2.56 µM | 1.2 µM and 9.59 µM | 0.154 | 0.359
Cc1cc2cc(Oc3ccnc(Nc4cccc(CS(=O)(=O)NCCN(C)C)c4)n3)ccc2[nH]1 | 4.3 µM | 15.8 µM | 1.59 | 4.95 | 13 | 26.1 | 8.04 µM | 21.5 µM | 3.05 | 13.3 | 5.29 µM | 19.5 µM | 5.37 | 18.4 | 3.69 | 14.7 | 4.93 µM | 22.7 µM | 4.51 | 18.9
COc1ccccc1NC(=O)N/C(N)=N/c1nc2ccccc2s1 | 0.0403 µM | 0.317 µM | 0.0228 | > 100 | 0.0607 | > 100 | 0.0418 µM | – | 0.0718 | 0.411 | 0.42 µM | > 100 µM | 0.0211 | 0.0692 | 0.025 | – | 0.394 µM | > 100 µM | 0.0884 | > 100
CCN(CCc1ccc(F)cc1)c1ccc(CO)c(Cl)c1 | 4.27 µM | 15.4 µM | 13.1 | 42.5 | 13.2 | 26.6 | 3.44 µM | 17.6 µM | 15.7 | 29.3 | 0.505 µM | 2.28 µM | 15.6 | 31.8 | 10.9 | 25.4 | 1.39 µM | 12.7 µM | 0.824 | 7.11
COc1cc(/C=C\c2cc(/C=C\c3ccc(O)c(OC)c3)n(C(=O)Nc3ccc(C(F)(F)F)cc3)n2)ccc1O | 3.41 µM | 26.7 µM | 1.48 | > 100 | 3.16 | 11.2 | 2.89 µM | 9.85 µM | 2.37 | 7.45 | 2.16 µM | 4.97 µM | 2.35 | 7.06 | 1.78 | 4.65 | 2.81 µM | 39 µM | 2.77 | 11.6
N#C/C(=C/c1cccs1)c1cccs1 | > 100 µM | > 100 µM | > 100 | > 100 | > 100 | > 100 | > 100 µM | > 100 µM | > 100 | > 100 | > 100 µM | > 100 µM | > 100 | > 100 | > 100 | > 100 | 51.5 µM | > 100 µM | > 100 | > 100
COc1ncnc2c1ncn2C/C(Br)=C(\Br)CCl | 1.77 µM | 3.22 µM | 2.73 | 12.2 | 12.1 | 24.5 | 10.6 µM | 23.3 µM | 2.17 | 7.61 | 3.83 µM | 15.2 µM | 2.94 | 11.5 | 0.875 | 2.25 | 2.37 µM | 6.84 µM | 1.77 | 4.86
COc1cc(C)c(N(C)C(=O)CN(C)C)cc1Nc1nc(Nc2cccc(F)c2C(N)=O)c2cc[nH]c2n1 | > 25 µM | > 25 µM | 7.85 | > 23.3 | > 25 | > 25 | > 25 µM | > 25 µM | > 25 | > 25 | 1.41 µM | > 25 µM | > 25 | > 25 | > 25 | > 25 | > 25 µM | > 25 µM | > 25 | > 25
COc1cc2c3c(n(CCCn4cccn4)c(=O)c2cc1OC)-c1cc2c(cc1C3=O)OCO2 | 33.7 µM | > 100 µM | 0.0465 | 1.57 | 1.08 | > 100 | 0.581 µM | 32 µM | 0.56 | 5.08 | 14 µM | 64.4 µM | 6.23 | 39.2 | 2.07 | 63.7 | 2.2 µM | > 100 µM | 1.8 | 29
